Reference: ChEMBL document CHEMBL3817795, “Identification and optimisation of a series of N-(4-anilino-2-pyridyl)acetamide activin receptor-like kinase 1 (ALK1) inhibitors” (Medchemcomm, 2016)

Experiment: Lipophilicity, log D of the compound at pH 7.4
Assay type: physicochemical
Settings: buffer

Row | logD | Structure (SMILES)
1 | 3.7 | O=C(Nc1cc(Nc2cccc3c2OCO3)ccn1)C1CC1
2 | 3.3 | O=C(Nc1cc(Nc2ccccc2)ccn1)C1CC1
